Where two headings read alike, the source gives them in different places.
Tests used:
T-47D = assay: NCI 60 cell line panel screen (SRB); format: cell-based, human; settings: T-47D (Breast Cancer)
A549/ATCC = assay: NCI 60 cell line panel screen (SRB); format: cell-based, human
[1] = system: chloroquine-sensitive P. falciparum (NF54); assay: Antimalarial activity in vitro, [3H]hypoxanthine incorporation; format: cell-based; settings: Plasmodium falciparum, read-out: IC50
786-0 = assay: NCI 60 cell line panel screen (SRB); format: cell-based, human
60 cell line panel = format: cell-based
NCI-H460 = assay: NCI 60 cell line panel screen (SRB); format: cell-based, human
HT29 = assay: NCI 60 cell line panel screen (SRB); format: cell-based, human
HL-60(TB) = assay: NCI 60 cell line panel screen (SRB); format: cell-based, human
HCT-116 = assay: NCI 60 cell line panel screen (SRB); format: cell-based, human
HCT-15 = assay: NCI 60 cell line panel screen (SRB); format: cell-based, human
MALME-3M = assay: NCI 60 cell line panel screen (SRB); format: cell-based, human; settings: MALME-3M (Melanoma)
TK-10 = assay: NCI 60 cell line panel screen (SRB); format: cell-based, human
SNB-19 = assay: NCI 60 cell line panel screen (SRB); format: cell-based, human
COLO 205 = assay: NCI 60 cell line panel screen (SRB); format: cell-based, human
EKVX = assay: NCI 60 cell line panel screen (SRB); format: cell-based, human
MCF7 = assay: NCI 60 cell line panel screen (SRB); format: cell-based, human
IGROVI = assay: NCI 60 cell line panel screen (SRB); format: cell-based, human
UO-31 = assay: NCI 60 cell line panel screen (SRB); format: cell-based, human

Question: Which Log10LC50 (T-47D; LC50: PG=−50) does the source give for `C[C@@H]1CC[C@H]2[C@@H](C)C(=O)O[C@@H]3O[C@]4(C)CC[C@@H]1[C@]32OO4` [Artemisinin] here?
Answer: >−4.00 log10M

Question: And the Log10TGI50 (T-47D; TGI: PG=0)?
Answer: >−4.00 log10M

Question: What about the Log10LC50 (A549/ATCC; A549/ATCC (Non-Small Cell Lung Cancer), LC50: PG=−50) of the same compound?
Answer: >−4.00 log10M

Question: And the Log10TGI50 (A549/ATCC; A549/ATCC (Non-Small Cell Lung Cancer), TGI: PG=0)?
Answer: >−4.00 log10M

Question: And the Log10GI50 (A549/ATCC; Non-Small Cell Lung Cancer, A549/ATCC)?
Answer: −4.17

Question: And the IC50 ([1]; NF54, Table I, NF54 strain)?
Answer: 9.2 ± 1.7 nM

Question: And the IC50 ([1]; NF54, running text b206, artemisinin)?
Answer: 7.7 nM

Question: And the Log10LC50 (786-0; 786-0 (Renal Cancer), LC50: PG=−50)?
Answer: >−4.00 log10M

Question: And the Log10TGI50 (786-0; 786-0 (Renal Cancer), TGI: PG=0)?
Answer: >−4.00 log10M

Question: What about the Log10GI50 (786-0; Renal Cancer, 786-0) of the same compound?
Answer: >−4.00

Question: And the “Log10GI50 Delta” value (60 cell line panel)?
Answer: −4.07

Question: What about the “Log10GI50 Range” value (60 cell line panel) of the same compound?
Answer: 0.73

Question: And the “Log10LC50 Delta” value (60 cell line panel; 60 cell line panel)?
Answer: −4.00

Question: And the “Log10LC50 Range” value (60 cell line panel; 60 cell line panel)?
Answer: 0.00

Question: What about the “Log10TGI50 Delta” value (60 cell line panel; 60 cell line panel) of the same compound?
Answer: −4.00

Question: What about the “Log10TGI50 Range” value (60 cell line panel; 60 cell line panel) of the same compound?
Answer: 0.06

Question: What about the Log10LC50 (NCI-H460; NCI-H460 (Non-Small Cell Lung Cancer), LC50: PG=−50) of the same compound?
Answer: >−4.00 log10M

Question: And the Log10TGI50 (NCI-H460; NCI-H460 (Non-Small Cell Lung Cancer), TGI: PG=0)?
Answer: >−4.00 log10M

Question: What about the Log10GI50 (NCI-H460; Non-Small Cell Lung Cancer, NCI-H460) of the same compound?
Answer: >−4.00

Question: What about the Log10GI50 (HT29; Colon Cancer, HT29) of the same compound?
Answer: >−4.00

Question: And the Log10LC50 (HT29; HT29 (Colon Cancer), LC50: PG=−50)?
Answer: >−4.00 log10M

Question: What about the Log10TGI50 (HT29; HT29 (Colon Cancer), TGI: PG=0) of the same compound?
Answer: >−4.00 log10M

Question: What about the Log10LC50 (HL-60(TB); HL-60(TB) (Leukemia), LC50: PG=−50) of the same compound?
Answer: >−4.00 log10M

Question: And the Log10TGI50 (HL-60(TB); HL-60(TB) (Leukemia), TGI: PG=0)?
Answer: >−4.00 log10M

Question: And the Log10GI50 (HL-60(TB); Leukemia, HL-60(TB))?
Answer: −4.26

Question: And the Log10GI50 (HCT-116; Colon Cancer, HCT-116)?
Answer: −4.18

Question: And the Log10LC50 (HCT-116; HCT-116 (Colon Cancer), LC50: PG=−50)?
Answer: >−4.00 log10M

Question: And the Log10TGI50 (HCT-116; HCT-116 (Colon Cancer), TGI: PG=0)?
Answer: >−4.00 log10M

Question: What about the Log10GI50 (HCT-15; Colon Cancer, HCT-15) of the same compound?
Answer: >−4.00

Question: And the Log10LC50 (HCT-15; HCT-15 (Colon Cancer), LC50: PG=−50)?
Answer: >−4.00 log10M

Question: What about the Log10TGI50 (HCT-15; HCT-15 (Colon Cancer), TGI: PG=0) of the same compound?
Answer: >−4.00 log10M

Question: And the Log10LC50 (MALME-3M; LC50: PG=−50)?
Answer: >−4.00 log10M

Question: And the Log10TGI50 (MALME-3M; TGI: PG=0)?
Answer: −4.06 log10M

Question: And the Log10GI50 (TK-10; Renal Cancer, TK-10)?
Answer: >−4.00

Question: What about the Log10LC50 (TK-10; TK-10 (Renal Cancer), LC50: PG=−50) of the same compound?
Answer: >−4.00 log10M

Question: And the Log10TGI50 (TK-10; TK-10 (Renal Cancer), TGI: PG=0)?
Answer: >−4.00 log10M

Question: What about the Log10GI50 (SNB-19; CNS Cancer, SNB-19) of the same compound?
Answer: >−4.00

Question: What about the Log10LC50 (SNB-19; SNB-19 (CNS Cancer), LC50: PG=−50) of the same compound?
Answer: >−4.00 log10M

Question: What about the Log10TGI50 (SNB-19; SNB-19 (CNS Cancer), TGI: PG=0) of the same compound?
Answer: >−4.00 log10M

Question: And the Log10LC50 (COLO 205; COLO 205 (Colon Cancer), LC50: PG=−50)?
Answer: >−4.00 log10M

Question: What about the Log10TGI50 (COLO 205; COLO 205 (Colon Cancer), TGI: PG=0) of the same compound?
Answer: >−4.00 log10M

Question: What about the Log10GI50 (COLO 205; Colon Cancer, COLO 205) of the same compound?
Answer: >−4.00

Question: And the Log10LC50 (EKVX; EKVX (Non-Small Cell Lung Cancer), LC50: PG=−50)?
Answer: >−4.00 log10M

Question: What about the Log10TGI50 (EKVX; EKVX (Non-Small Cell Lung Cancer), TGI: PG=0) of the same compound?
Answer: >−4.00 log10M

Question: And the Log10GI50 (EKVX; Non-Small Cell Lung Cancer, EKVX)?
Answer: >−4.00

Question: What about the Log10GI50 (MCF7; Breast Cancer, MCF7) of the same compound?
Answer: >−4.00

Question: And the Log10LC50 (MCF7; MCF7 (Breast Cancer), LC50: PG=−50)?
Answer: >−4.00 log10M

Question: What about the Log10TGI50 (MCF7; MCF7 (Breast Cancer), TGI: PG=0) of the same compound?
Answer: >−4.00 log10M

Question: And the Log10LC50 (IGROVI; IGROVI (Ovarian Cancer), LC50: PG=−50)?
Answer: >−4.00 log10M

Question: And the Log10TGI50 (IGROVI; IGROVI (Ovarian Cancer), TGI: PG=0)?
Answer: >−4.00 log10M

Question: And the Log10GI50 (IGROVI; Ovarian Cancer, IGROVI)?
Answer: −4.31

Question: What about the Log10GI50 (UO-31; Renal Cancer, UO-31) of the same compound?
Answer: −4.06

Question: And the Log10LC50 (UO-31; UO-31 (Renal Cancer), LC50: PG=−50)?
Answer: >−4.00 log10M

Question: And the Log10TGI50 (UO-31; UO-31 (Renal Cancer), TGI: PG=0)?
Answer: >−4.00 log10M

— US7417156B2, “Orally active, antimalarial, anticancer, artemisinin-derived trioxane dimers” (Johns Hopkins University, priority 2002, dated 2008)
